Laboratory results reported in patent US11149028B2, “Methods for treating melanoma using small molecules” (NOVA SOUTHEASTERN UNIVERSITY, priority 2016, dated 2021).
Entries after “also recorded” stand apart in the source; their conditions may differ.

How the values were obtained:
[1] = system: LC3-II and beclin-1 in WM266-4 cells; test: Western blotting for LC3 and beclin-1, WM266-4; assay type: cell-based, human; conditions: for LC3 and beclin-1, early time point: 30 min, 5-50 μM
Method: 1×10^6 of WM266-4 or M14 cells were seeded in 3 mL of E-MEM or RPMI-1640 medium supplemented with 10% FBS and 1% penicillin/streptomycin in 6 cm plates. […] After washing with TBST, the membranes were treated with chemilumiscent horseradish peroxidase detection reagent (Thermo Scientific, Cat #32209) and exposed to autoradiography film (Denville Scientific, Inc., Metuchen, N.J., USA, cat #E3018). ImageJ software (NIH, Bethesda, Md.) was used to quantify the intensity of proteins bands. The protein bands were normalized against loading controls (β-actin) and expressed as a fold of an untreated control.

[2] = system: mouse embryonic fibroblasts (MEF); test: Viability of mouse embryonic fibroblasts; assay type: cell-based
Method: Cells were plated in 384-well plates in 8 μL of media. Test compounds and dabrafenib (pharmacological assay control) were prepared as 10-point, 1:3 serial dilutions starting at 300 μM, then added to the cells (4 μL per well) using the Biomek Plates were incubated for 72 h at 37° C., 5% CO2 and 95% relative humidity. After incubation, 4 μL of CellTiter-Glo® (Promega cat #: G7570) were added to each well, and incubated for 15 min at room temperature. Luminescence was recorded using a Biotek Synergy H4 multimode microplate reader. Viability was expressed as a percentage relative to wells containing media only (0%) and wells containing cells treated with DMSO only (100%). Three parameters were calculated on a per-plate basis: (a) the signal-to-background ratio (SB); (b) the coefficient for variation [CV; CV=(standard deviation/mean)×100)] for all compound test wells; and (c) the Z′-factor (18). The IC50 value of the pharmacological control (dabrafenib, LC Laboratories #G-4408) was also calculated to ascertain the assay robustness. In case of viability rescue assays, cells were pre-treated with caspase, calpain, and autophagy inhibitors for 1-3 h before addition of test compounds. Time course viability assay was done with luminescence measurements performed at 4, 24, 48, and 72 h.

[3] = system: caspase 9 in WM266-4 cells; test: Caspase 9 activity assay; assay type: cell-based, human; conditions: 0 and 4 h
Method: WM266-4 and M14 cells were plated in 384-well plates in 5 μL of complete media (EMEM and RPMI-1640, respectively). 5 μL of 200 μM 2155-14 and 2155-18 were added to the cells. Plates were incubated at 37° C., 5% CO2 and 95% relative humidity for various lengths of time. After incubation, 5 μL of caspase 3/7, caspase 8, and caspase 9 Glo® reagent (Promega cat #: G7570) were added to each well, and incubated for 15 min at room temperature. Luminescence was recorded using a Biotek Synergy H4 multimode microplate reader.

[4] = system: HEPG2 cell line; test: Viability of HEPG2 liver cancer cells; assay type: cell-based
[5] = molecular target: HDAC6 (Homo sapiens, UniProt Q9UBN7); test: HDAC inhibition testing; assay type: biochemical; conditions: up to 100 μM
HDAC6, sequence (Q9UBN7 whole entry, species assumed): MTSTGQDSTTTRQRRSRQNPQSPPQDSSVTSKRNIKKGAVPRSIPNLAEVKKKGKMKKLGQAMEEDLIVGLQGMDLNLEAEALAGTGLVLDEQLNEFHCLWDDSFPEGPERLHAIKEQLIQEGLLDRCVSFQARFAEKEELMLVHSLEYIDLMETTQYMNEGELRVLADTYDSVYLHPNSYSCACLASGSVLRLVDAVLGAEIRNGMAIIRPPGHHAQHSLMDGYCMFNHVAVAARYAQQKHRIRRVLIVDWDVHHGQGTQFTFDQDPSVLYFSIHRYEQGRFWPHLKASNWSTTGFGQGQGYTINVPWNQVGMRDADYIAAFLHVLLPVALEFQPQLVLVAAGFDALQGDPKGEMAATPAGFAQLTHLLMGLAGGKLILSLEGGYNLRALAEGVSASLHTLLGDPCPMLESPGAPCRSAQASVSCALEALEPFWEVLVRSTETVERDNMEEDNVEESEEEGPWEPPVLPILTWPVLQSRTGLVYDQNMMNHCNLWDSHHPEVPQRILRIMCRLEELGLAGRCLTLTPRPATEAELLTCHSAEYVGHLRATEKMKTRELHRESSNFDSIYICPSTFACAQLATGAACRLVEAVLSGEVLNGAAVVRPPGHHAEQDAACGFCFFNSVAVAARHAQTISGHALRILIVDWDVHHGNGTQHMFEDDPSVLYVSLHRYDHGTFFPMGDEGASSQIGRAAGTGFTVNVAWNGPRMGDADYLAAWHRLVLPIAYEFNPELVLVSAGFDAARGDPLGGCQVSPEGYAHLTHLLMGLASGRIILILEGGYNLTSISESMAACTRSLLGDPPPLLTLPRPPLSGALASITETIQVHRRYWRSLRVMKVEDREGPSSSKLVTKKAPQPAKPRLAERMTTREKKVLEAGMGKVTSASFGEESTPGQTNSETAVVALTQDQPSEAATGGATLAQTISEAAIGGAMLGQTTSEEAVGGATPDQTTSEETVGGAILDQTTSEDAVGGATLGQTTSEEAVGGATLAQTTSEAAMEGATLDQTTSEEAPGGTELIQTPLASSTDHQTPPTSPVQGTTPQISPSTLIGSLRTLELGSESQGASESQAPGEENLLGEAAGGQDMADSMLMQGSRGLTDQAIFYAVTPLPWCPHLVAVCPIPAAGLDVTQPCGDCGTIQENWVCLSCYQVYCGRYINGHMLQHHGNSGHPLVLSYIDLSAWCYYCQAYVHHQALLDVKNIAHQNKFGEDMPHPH

[6] = system: MAPK/PI3K dual phosphorylation of WM266-4 cells; test: MAPK-Akt flow cytometry assay; assay type: cell-based, human; conditions: 48 h, 25 μM
Method: WM266-4 cells were seeded at 250,000 cells/well in E-MEM medium supplemented with 10% FBS and 1% penicillin/streptomycin in 6 well plates (Greiner Bio-One CellStar cat #655180) and allowed to adhere overnight. After incubation cells were treated with control (25 μM dabrafenib+25 μM trametinib), and 25 μM 2155-14 and 18 for 24 and 48 hours. Manufacturer's instructions for Muse™ PI3K/MAPK Dual Pathway Activation kit (EMD Millipore MCH200108) were followed. Cells were harvested, washed with PBS, and re-suspended in 1× assay buffer supplemented with fixation buffer and incubated on ice for 10 min. Cells were permeabilized with permeablization buffer supplied with the kit and incubated with an antibody cocktail (5 μL of Anti-Akt/PKB+5 μL of Anti-phospho-Akt). Cells were analyzed on Muse flow cytometer (EMD Millipore) using PI3K/MAPK Dual Pathway sub-routine.

[7] = system: CHO-K1 cells; test: CellTiter-Glo viability assay, CHO-K1 healthy control cells; assay type: cell-based; conditions: individual compounds
Method: (§1) Mixture libraries were solubilized in 3% DMSO/H2O and added to polypropylene 384 well plates (Greiner cat #781280). 1,250 CHO-K1, A549, or M14 cells were plated in 384-well plates in 5 μL of serum-free media (F12 for CHO-K1 and A549, DMEM for M14). Test compounds and gefitinib (pharmacological assay control) were prepared as 10-point, 1:3 serial dilutions starting at 300 then added to the cells (5 μL per well) using the Biomek NX^P. Plates were incubated for 72 h at 37° C., 5% CO2 and 95% RH. After incubation, 5 μL of CellTiter-Glo® (Promega cat #: G7570) were added to each well, and incubated for 15 min at room temperature. Luminescence was recorded using a Biotek Synergy H4 multimode microplate reader. Viability was expressed as a percentage relative to wells containing media only (0%) and wells containing cells treated with 1% DMSO only (100%). Three parameters were calculated on a per-plate basis: (a) the signal-to-background ratio (SB); (b) the coefficient for variation [CV; CV=(standard deviation/mean)×100)] for all compound test wells; and (c) the Z′-factor (18). The IC50 value of the pharmacological control (gefitinib, LC Laboratories #G-4408) was also calculated to ascertain the assay robustness. Time course viability assay was performed as described for library screening with luminescence measurements performed at 4, 24, 48, and 72 h.

[8] = system: SKMEL-28 melanoma cell line; test: Hexosaminidase viability assay, SKMEL-28; assay type: cell-based; conditions: Homo sapiens, SK-MEL-28; for IC50: V600EBRAF mutation
Method: Hexosaminidase assay was used to study the effects of 2155-14 and 2155-18 on cell viability or cell proliferation of both B16/F-10 and SKMEL-28 cells
(Landegren, U. Measurement of cell numbers by means of the endogenous enzyme hexosaminidase. Applications to detection of lymphokines and cell surface antigens. J Immunol Methods 1984, 67, 379-388). In brief, cells were plated in 96 well plates, grown overnight and treated the next day with increasing concentrations of compounds (0-50 μM) for 48 h. After 48 h of treatment, media was discarded and cells were washed with PBS to remove residual media from wells. Hexosaminidase substrate (75 μL) (Sigma Aldrich; cat #N9376) was added to each well, incubated at 37° C. for 30 min followed by addition of 112.5 μL of developer into each well. Final absorbance was measured at λ=405 nm. Cell growth was calculated as percent viability=[([…])×100], where A and B were the absorbance of treated and control cells, respectively.

[9] = system: A549 non-small cell lung cancer cell line; test: CellTiter-Glo viability assay, A549 cells; assay type: cell-based; conditions: individual compounds
Method: as §1

HDAC6 inhibition [5] | IC50 [8] [nM] | IC50 ([9]; Homo sapiens, A549) [µM] | SMILES | LC3 and beclin-1, early time point [1] | LC3-II level, WM266-4 ([1]; 24 h, 5-200 μM) | beclin-1 level, WM266-4 ([1]; 24 h, 5-200 μM) | toxicity to mouse embryonic fibroblasts [2] | caspase 9 signal vs untreated control [3] | selectivity against HEPG2 cell line [4] | PI3K-activated cells [6] | cells with single pathway activation [6] | decrease of cell population with dual pathway activation vs untreated control [6] [%] | increase of cells where both pathways were inactive [6] | IC50 ([7]; Cricetulus griseus, CHO-K1) [µM] | cytotoxicity at 10 µM ([8]; starting at 10 μM, read-out: inhibition of SKMEL-28 viability) [%] | effect on MAPK/PI3K cell populations [6] | selectivity over CHO-K1 healthy control cells [7] | activity towards A549 cells [9]
lack of HDAC inhibition | 563 ± 40 | > 100 | O=C1NC[C@H](Cc2ccccc2)N(C[C@@H]2CCCN2C[C@@H](CC2CCCCC2)N2C[C@H](Cc3ccc(O)cc3)N(CCc3ccccc3)C(=O)C2=O)C1=O [Compound 2155-14, (S)-1((R)-1((S)-2-(((S)-6-benzyl-2,3-dioxopiperazin-1-yl)methyl)pyrrolidin-1-yl)-3-cyclohexylpropan-2-yl)-5-(4-hydroxybenzyl)-4-phenethylpiperazine-2,3-dione] | autophagy potentiation as compared to the untreated control was not observed; also recorded: No statistical significance between untreated control and test conditions | Dose dependent increase | Dose dependent increase | not toxic | significantly different from untreated control cells | selective | absence of PI3K activation | not significantly affected | ~20 | approximately 10% | > 100 | ~100 | – | – | –
lack of HDAC inhibition | 890 ± 70 | – | O=C1NC[C@H](Cc2ccccc2)N(C[C@@H]2CCCN2C[C@H](Cc2ccccc2)N2C[C@H](Cc3ccc(O)cc3)N(CCC34CC5CC(CC(C5)C3)C4)C(=O)C2=O)C1=O [Compound 2155-18, (S)-4-(2-(adamantan-1yl)ethyl)-1-((S)-1-((S)-2-(((S)-6-benzyl-2,3-dioxopiperazin-1-yl)methyl)pyrrolidin-1-yl)-3-phenylpropan-2-yl)-5-(4-hydroxybenzyl)piperazine-2,3-dione] | No statistical significance between untreated control and test conditions | dose dependent inhibitory effect on basal autophagy | – | not toxic | significantly different from untreated control cells | selective | – | – | – | – | – | – | no effect on either cell population | maintaining selectivity for CHO-K1 cells | improved activity
